The assay has as its target Leukotriene B4 receptor 1 (Cavia porcellus). Briefly: Binding affinity against LTB4 receptor in guinea pig membrane.

Here are results for two compounds from BindingDB's records for doi:10.1016/S0960-894X(00)80304-2 (1993).

Usually Ki stands for a dissociation constant, usually derived from enzyme kinetics or from competition with a known ligand. A lower Ki goes with higher affinity. In the case of `CCCc1c(OCCCOc2cc(O)c(C(C)=O)cc2CC)cccc1OC(C)C(=O)O` (configuration not stated) [2-{3-[3-(4-Acetyl-2-ethyl-5-hydroxy-phenoxy)-propoxy]-2-propyl-phenoxy}-propionic acid], the Ki was 19 nM. For `CCCc1c(OCCCOc2cc(O)c(C(C)=O)cc2CC)cccc1OCC(=O)O` [{3-[3-(4-Acetyl-2-ethyl-5-hydroxy-phenoxy)-propoxy]-2-propyl-phenoxy}-acetic acid], affinity was put at a Ki of 5 nM. This Ki lies about 3.8-fold lower than the previous one.
